“Also recorded” adds a separate entry of the source.
Tests used:
thyroid cancer = assay: gamma H2AX foci after x-ray irradiation, thyroid cancer; type: cell-based; conditions: 24 hours after x-ray irradiation, 0 or 8 Gy, 0.20 mM
Description: Treatments are in full cell media.

NIH3T3 cells = assay: Confocal fluorescence imaging of intracellular GNC formation; type: cell-based, mouse; conditions: 1 mM in cell culture media, 24 hours; 561 nm excitation, 610 nm emission
Method: FIG. 3A presents fluorescence images of control NIH3T3 cells (left) and cells treated with Au^3+ (right). Both control and treated cells generated fluorescence with nuclear staining by Hoechst 33342. Fluorescent signal in the treated cells was associated with intracellular formation of gold nanoclusters (GNCs). Scale bars 20 μm.
Our initial evaluation of radiosensitization via intracellular GNP formation was performed with 3T3 mouse fibroblast cells. […] Radiosensitization with intracellular GNC formation (i.e., delivery of Au^3+) was compared with pre-fabricated albumin-coated GNCs (Albumin-GNC) prepared according to work by Xie^46 and control cells without treatment via MTS assay (FIG. 3B).

[1] = test system: pancreatic noncancerous cells (HPDE); assay: Confocal fluorescence imaging of in situ GNC synthesis; type: cell-based; conditions: 1 mM, 24 hours, 561 nm excitation, 610 nm emission
Method: FIG. 4 presents fluorescence confocal images of non-cancerous (HPDE) and cancerous (MIAPaCa2) pancreatic cells treated with either 1 mM of Au^3+ gold ions or premade albumin-GNCs at 1 mM Au^0 for 24 hours. (From left to right) Cells: untreated; treated with albumin-GNCs; treated with Au^3+ gold ions. […] The strong red fluorescence in cancer cells indicated intracellular synthesis of GNCs from gold ions. Scale bars are 25 μm.
We compared in situ synthesis of GNCs by pancreatic cancer cells (MIAPACA2) and pancreatic noncancerous cells (HPDE) (FIG. 4). Confocal fluorescence images were obtained using a Leica TCS SP8 confocal microscope with 561 nm excitation and 610 nm emission optimized for detection of GNCs.

[2] = test system: PANC1 pancreatic cancer cells; assay: Longitudinal live cell confocal fluorescence imaging of the intracellular distribution of GNCs; type: cell-based, human; conditions: 0.20 mM, 20 hr time period
Description: 2.1. Intracellular distribution and time dependence of gold nanocluster (GNC) in situ formation. […] Then, we used longitudinal live cell confocal fluorescence imaging to observe time dependence of the intracellular distribution of GNCs formed through biomineralization of Au^3+.

PANC1 cells = assay: Clonogenic survival assay of radiosensitization; type: cell-based, human; conditions: 0.20 mM, 24 hrs
Method: FIG. 20 presents evidence of radiosensitization resulting from 24 hour 0.20 mM Au^3+ treatments (lower plot) compared against non-treated (upper plot) determined via clonogenic survival assay and in full cell media to PANC1 pancreatic cancer.
2.5. Evaluate radiosensitization efficacy and radiosensitization mechanisms for in situ synthetized GNCs. Based on the studies described in Sections 2.3-2.4, we selected the following conditions for radiosensitization studies in cell culture: 24 hr media conditioning by cells, 10% FBS (v/v) within, and 0.20 mM Au^3+ for 24 hrs.
A standard clonogenic assay was used to evaluate radiosensitization efficacy of intracellular synthetized GNC in PANC1 cells (FIG. 20). […] Dose enhancement factor at 10% surviving fraction (DEF10%) was calculated at 1.317 indicative of a strong radiosensitization in Au^3+ treated cells.

PANC1 pancreatic cancer = assay: JC-1 assay of mitochondrial polarization after irradiation; type: cell-based, human; conditions: 24 hr post-irradiation, 8 Gy
Method: FIG. 22 reports on a mechanistic study of radiosensitization quantifying mitochondrial depolarization through JC-1 assay measured at 0, 1, and 24 hours, resulting from 24 hour, 0.20 mM Au^3+ treatments (lower three) compared against non-treated (upper three) combined with either 0 Gy or 8 Gy x-ray irradiation. Treatments are in full cell media to PANC1 pancreatic cancer.
The JC-1 assay measures the charge potential of the mitochondria of cells through the fluorometric ratio of the JC-1 dye (ThermoFisher Scientific, Waltham, Mass.). JC-1 is a cationic carbocyanine dye that accumulates in mitochondria. The dye exists as a monomer at low concentrations and yields green fluorescence, similar to fluorescein. […] These characteristics make JC-1 a sensitive marker for mitochondrial membrane potential. In other words, mitochondrial depolarization is indicated by a decrease in the red/green fluorescence intensity ratio. Mitochondrial depolarization is an indicator of reduced cell viability.
Further, we characterized the mechanisms of radiosensitization through (i) quantification of double stranded DNA breaks via y-H2AX Foci (FIG. 21), (ii) mitochondrial polarization via JC-1 assay (FIG. 22), (iii) NADP total (FIG. 23) and NADP:NADPH ratio (FIG. 24) via NADP(H) assay, and (iv) peroxidation production via TBARS assay (FIG. 25).

Compound: [Au+3].[Cl-].[Cl-].[Cl-].[Cl-].[H+] [Au^3+, chloroauric acid]
- radiosensitization via induced double stranded DNA breaks (gamma H2AX foci) (thyroid cancer): evidence of radiosensitization via induced double stranded DNA breaks
- intracellular formation of GNCs (confocal fluorescence) (NIH3T3 cells): uniform formation of GNCs
- GNC fluorescence / GNC formation [1]: only sparsely seen
- subcellular region of greatest GNC formation [2]: nucleolus had the highest rate of GNC formation; also recorded: greatest in the nucleolus
- Dose enhancement factor at 10% surviving fraction (DEF10%) (PANC1 cells): 1.317
- average surviving fraction (PANC1 cells; 2 Gy): 47.3%
- average surviving fraction (PANC1 cells; 4 Gy): 7.3%
- average surviving fraction (PANC1 cells; 6 Gy): 2.2%
- recovery of mitochondrial depolarization (PANC1 pancreatic cancer): no recovery in the mitochondrial depolarization
